From patent EP0080940B1, “Derivatives of 2-phenyl-morpholine and medical compositions” (LABORATOIRE L. LAFON Société anonyme dite:, priority 1981, dated 1983)

Tests used:
Format in all cases: in vivo
rat = assay: Global behaviour and reactivity, rat
Method: On a résumé ci-après les résultats des essais qui ont été entrepris chez l'animal avec le CRL 40914, ce produit étant administré, sauf indications contraires, en solution dans l'eau (à pH 5) par voie intrapéritonéale sous un volume de 20 ml/kg chez la souris mâle et de 5 ml/kg chez le rat mâle.
Des lots de 3 animaux sont observés avant, puis 15 min, 30 min, 1 h, 2 h, 3 h et 24 h après l'administration de CRL 40914. On observe ce qui suit:
(§1) On a résumé ci-après les résultats des essais qui ont été entrepris chez l'animal avec le CRL 40915, les modalités opératoires étant celles données ci-dessus pour le CR L 40914.

souris [1] = assay: Interaction with apomorphine, mouse; settings: 16 mg/kg et 64 mg/kg i.p., une demi-heure avant apomorphine s.c. 1 ou 16 mg/kg
Method: Des lots de 6 souris reçoivent le CRL 40914 une demi-heure avant l'injection sous-cutanée d'apomorphine, à la dose de 1 mg/kg ou 16 mg/kg.
as §1

rats = assay: Interaction with apomorphine, rat; settings: apomorphine 0,5 mg/kg s.c.
Method: Le CRL 40914 est administré aux rats une demi-heure avant l'injection sous-cutanée de 0,5 mg/kg d'apomorphine.
as §1

souris [2] = assay: Interaction with oxotremorine; settings: oxotrémorine 0,5 mg/kg i.p.
Method: Le CRL 40914 est administré à des lots de 6 souris une demi-heure avant l'injection intrapéritonéale de 0,5 mg/kg d'oxotrémorine.
as §1

souris [3] = assay: Interaction with barbital; settings: barbital sodique 220 mg/kg i.p.
Method: Des lots de 10 souris reçoivent le CRL 40914 une demi-heure avant l'injection intrapéritonéale de 220 mg/kg de barbital sodique.

souris [4] = assay: Interaction with yohimbine, temperature; settings: 1 mg/kg et 16 mg/kg de CRL 40914, yohimbine 0,5 mg/kg i.p. une demi-heure avant
Method: Des lots de 12 souris reçoivent une injection intrapéritonéale de 0,5 mg/kg de yohimbine, une demi-heure avant l'administration de CRL 40914.

Q: For `CCN1CCOC(c2ccccc2)C1` (centres unmarked) [CRL 40914, Chlorhydratede 2-phényl-4-éthyl-morpholine], which mydriase (rat; rat, 0,5 mg/kg i.p.) is on record?
A: mydriase pendant 1 à 2 h

Q: And the mydriase (rat; rat, 2 mg/kg i.p.)?
A: mydriase pendant 1 à 2 h

Q: And the sédation (rat; rat, 2 mg/kg i.p.)?
A: sédation pendant 1 h

Q: And the mydriase (rat; rat, 8 mg/kg i.p.)?
A: mydriase pendant 2 h

Q: What about the piloérection (rat; rat, 8 mg/kg i.p.) of the same compound?
A: piloérection pendant 1 à 2 h

Q: What about the sédation (rat; rat, 8 mg/kg i.p.) of the same compound?
A: sédation pendant 2 h avec diminution de la réactivité au toucher mais augmentation de la réaction de peur

Q: What about the mydriase (rat; rat, 32 mg/kg i.p.) of the same compound?
A: mydriase pendant plus de 3 h

Q: And the “piloérection, salivation et lacrymation” value (rat; rat, 32 mg/kg i.p.)?
A: piloérection (pendant 3 h), salivation (pendant 1 h) et lacrymation (pendant 1 h)

Q: What about the réaction de peur (rat; rat, 32 mg/kg i.p.) of the same compound?
A: augmentation de la réaction de peur pendant 3 h

Q: What about the sédation (rat; rat, 32 mg/kg i.p.) of the same compound?
A: sédation pendant 3 h avec diminution de la réactivité au toucher et du tonus musculaire

Q: And the “action hypothermisante de l'apomorphine” value (souris [1])?
A: s'oppose à l'action hypothermisante de l'apomorphine

Q: And the “indices de verticalisation et de stéréotypies (apomorphine)” value (souris [1])?
A: semble augmenter les indices de verticalisation et de stéréotypies

Q: And the “stéréotypies induites par l'apomorphine” value (rats; rat, 0,5 mg/kg, 2 mg/kg et 8 mg/kg i.p.)?
A: semble diminuer modérément l'intensité des téréotypies induites par l'apomorphine

Q: What about the “stéréotypies induites par l'apomorphine” value (rats; rat, 32 mg/kg i.p.) of the same compound?
A: potentialisation discrète des stéréotypies

Q: And the “effet hypothermisant de l'oxotrémorine” value (souris [2]; 16 mg/kg et 64 mg/kg i.p.)?
A: combat l'effet hypothermisant

Q: And the “tremblements dus à l'oxotrémorine” value (souris [2]; 64 mg/kg i.p.)?
A: diminue l'intensité des tremblements

Q: And the “signes de stimulation cholinergique périphérique provoqués par l'oxotrémorine” value (souris [2])?
A: laisse inchangés les signes de stimulation cholinergique périphériques

Q: And the “durée du sommeil induit par le barbital” value (souris [3]; 4 mg/kg et 16 mg/kg i.p.)?
A: semble prolonger modérément la durée du sommeil induit par le barbital

Q: What about the “durée du sommeil induit par le barbital” value (souris [3]; 64 mg/kg i.p.) of the same compound?
A: antagonisme net

Q: And the “hypothermie induite par le CRL 40914 après yohimbine” value (souris [4])?
A: empêche l'apparition de l'hypothermie
